Results taken from patent US20240287052A1, “NOVEL OXAZOLE DERIVATIVE AND PHARMACEUTICAL COMPOSITION FOR PREVENTING OR TREATING ALLERGIC DISEASES COMPRISING THE SAME” (AZCURIS CO., LTD., priority 2021, published 2024).
Like-named read-outs stand apart in the source and are kept apart here.

Target: T1, IL33 and ST2 binding (Homo sapiens, UniProt O95760)
T1 sequence (O95760 112-270 limits assumed): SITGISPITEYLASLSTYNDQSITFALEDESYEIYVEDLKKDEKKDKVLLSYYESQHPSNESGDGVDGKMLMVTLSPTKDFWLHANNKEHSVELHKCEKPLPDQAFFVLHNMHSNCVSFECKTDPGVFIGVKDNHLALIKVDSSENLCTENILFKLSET
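Further: plate ELISA with coated Flag-tagged human IL-33 and His-tagged human ST2, bound ST2 detected by anti-His HRP and TMB absorbance at 450 nm, 2 h compound incubation.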

Experimental: 100 nM of Flag tagged IL-33 human recombinant protein was prepared in 1× coating buffer (Biolegend) and placed in a 96 well microplate (Coming) using a Multichannel pipette (Gilson) and coated for at least 12 hours at 4° C.
After washing three times with PBST (1×PBS (Welgene), 1% Tween 20 (sigma)), it was reacted with 1% BSA (Bovogen) blocking buffer for 1 hour at room temperature.
Samples containing 200 nM of His-tagged ST2 human recombinant protein and 60 μM or 200 μM Example synthetic compounds were prepared, added in equal volumes, and reacted for at least 2 hours at room temperature.
After washing three times with PBST (1×PBS (Welgene), 1% Tween 20 (sigma)), anti-His HRP (BioLegend) antibody was diluted 5000:1 and reacted for at least 1 hour at room temperature.
After washing three times with PBST (1×PBS (Welgene), 1% Tween 20 (sigma)), TMB substrate solution (Thermo) was added and reacted for more than 5 minutes. The reaction was stopped by adding 1 N HCl (Samchun) and the absorbance value was obtained at 450 nm after orbital shaking for 5 s with a Microplate reader (Tecan, Spark®).
The results derived from the program linked to the microplate reader were analyzed using an Excel program. IL33-ST2 binding rate (binding %) was calculated by averaging the three values obtained in triplicate, subtracting the positive control value, and converting the negative control value to 100%. The inhibition % value of each compound was obtained by subtracting the IL33-ST2 binding % from 100%, and the error range of triplicate was also obtained and reflected in the inhibition graph of the compound.

| inhibition (30 µM) | inhibition (100 µM) | Structure (SMILES) |
| --- | --- | --- |
| -16% | -11% | O=C(c1nc(-c2ccc(C(F)(F)F)cc2)oc1-c1ccccc1[N+](=O)[O-])N1CCC(O)CC1 [Compound 161, (4-Hydroxypiperidin-1-yl)(5-(2-nitrophenyl)-2-(4-(trifluoromethyl)phenyl)oxazol-4-yl)methanone] |
| 31% | 38% | CN1CCN(CCNC(=O)c2nc(-c3cccc(Cl)c3)oc2-c2ccccc2)CC1 [Compound 241, 2-(3-Chlorophenyl)-N-(2-(4-methylpiperazin-1-yl)ethyl)-5-phenyloxazole-4-carboxamide] |
| 3% | 49% | CN1CCN(CCNC(=O)c2nc(-c3ccc(-c4ccccc4)cc3)oc2-c2ccccc2[N+](=O)[O-])CC1 [Compound 256, 2-([1,1′-Biphenyl]-4-yl)-N-(2-(4-methylpiperazin-1-yl)ethyl)-5-(2-nitrophenyl)oxazole-4-carboxamide] |
| 7% | 40% | CN1CCN(CCNC(=O)c2nc(-c3ccccc3C(F)(F)F)oc2-c2ccccc2[N+](=O)[O-])CC1 [Compound 120, N-(2-(4-Methylpiperazin-1-yl)ethyl)-5-(2-nitrophenyl)-2-(2-(trifluoromethyl)phenyl)oxazole-4-carboxamide] |
| 11% | 37% | O=C(NCCc1ccc(O)cc1)c1nc(-c2ccc(C(F)(F)F)cc2)oc1-c1ccccc1 [Compound 130, N-(4-Hydroxyphenethyl)-5-phenyl-2-(4-(trifluoromethyl)phenyl)oxazole-4-carboxamide] |
| – | 45% | CCOC(=O)c1coc(-c2ccc(SC)cc2)n1 [Compound 22, Ethyl 2-(4-(methylthio)phenyl)oxazole-4-carboxylate] |
| 45% | 79% | CN(C)CCN1CCN(C(=O)c2nc(-c3ccc(C(F)(F)F)cc3)oc2-c2ccccc2)CC1 [Compound 129] |
| 9% | 15% | CCOC(=O)c1nc(-c2ccc(F)cc2)oc1-c1ccccc1 [Compound 67, Ethyl 2-(4-fluorophenyl)-5-phenyloxazole-4-carboxylate] |
| -28% | -16% | CN(C)CCNC(=O)c1nc(-c2cccc(F)c2)oc1-c1ccccc1[N+](=O)[O-] [Compound 222, N-(2-(Dimethylamino)ethyl)-2-(3-fluorophenyl)-5-(2-nitrophenyl)oxazole-4-carboxamide] |
| -24% | -5% | CN1CCN(CCNC(=O)c2nc(-c3ccc(C(F)(F)F)cc3)oc2-c2ccccc2)CC1 [Compound 127, N-(2-(4-Methylpiperazin-1-yl)ethyl)-5-phenyl-2-(4-(trifluoromethyl)phenyl)oxazole-4-carboxamide] |
| -1% | 41% | O=C(c1nc(-c2ccc(C(F)(F)F)cc2)oc1-c1ccccc1[N+](=O)[O-])N1CCOCC1 [Compound 156, Morpholino(5-(2-nitrophenyl)-2-(4-(trifluoromethyl)phenyl)oxazol-4-yl)methanone] |
| 3% | 36% | CN(C)CCNC(=O)c1nc(-c2cc(F)cc(F)c2)oc1-c1ccccc1 [Compound 235, 2-(3,5-Difluorophenyl)-N-(2-(dimethylamino)ethyl)-5-phenyloxazole-4-carboxamide] |
| 95% | 110% | CCOC(=O)c1nc(-c2ccc(Cl)cc2)oc1-c1ccccc1 [Compound 77, Ethyl 2-(4-chlorophenyl)-5-phenyloxazole-4-carboxylate] |
| -33% | -16% | O=C(c1nc(-c2ccc(C(F)(F)F)cc2)oc1-c1ccccc1[N+](=O)[O-])N1CCN(CCN2CCCCC2)CC1 [Compound 151, (5-(2-Nitrophenyl)-2-(4-(trifluoromethyl)phenyl)oxazol-4-yl)(4-(2-(piperidin-1-yl)ethyl)piperazin-1-yl)methanone] |
| -25% | -18% | CSc1ccc(-c2nc(C(=O)NCCN(C)C)c(-c3ccccc3[N+](=O)[O-])o2)cc1 [Compound 273, N-(2-(Dimethylamino)ethyl)-2-(4-(methylthio)phenyl)-5-(2-nitrophenyl)oxazole-4-carboxamide] |
| 12% | -12% | CC(C)N1CCN(C(=O)c2nc(-c3ccc(C(F)(F)F)cc3)oc2-c2ccccc2[N+](=O)[O-])CC1 [Compound 168, (4-Isopropylpiperazin-1-yl)(5-(2-nitrophenyl)-2-(4-(trifluoromethyl)phenyl)oxazol-4-yl)methanone] |
| -16% | -28% | CN(C)CCNC(=O)c1nc(-c2ccc([N+](=O)[O-])cc2)oc1-c1ccccc1 [Compound 275, N-(2-(Dimethylamino)ethyl)-2-(4-nitrophenyl)-5-phenyloxazole-4-carboxamide] |

| inhibition (30 µM) | inhibition (100 µM) | Structure (SMILES) |
| --- | --- | --- |
| 40% | 107% | COCCNC(=O)c1nc(-c2ccc(C(F)(F)F)cc2)oc1-c1cccc(SC)c1 [Compound 293, N-(2-Methoxyethyl)-5-(3-(methylthio)phenyl)-2-(4-(trifluoromethyl)phenyl)oxazole-4-carboxamide] |
| 26% | 57% | CCOC(=O)c1nc(-c2ccc(OC)cc2)oc1-c1ccccc1[N+](=O)[O-] [Compound 63, Ethyl 2-(4-methoxyphenyl)-5-(2-nitrophenyl)oxazole-4-carboxylate] |
| 32% | 48% | CCOC(=O)c1nc(-c2ccc(F)cc2)oc1-c1ccc([N+](=O)[O-])cc1 [Compound 69, Ethyl 2-(4-fluorophenyl)-5-(4-nitrophenyl)oxazole-4-carboxylate] |
| 6% | 8% | O=C(NCc1cccnc1)c1nc(-c2ccc(C(F)(F)F)cc2)oc1-c1ccccc1[N+](=O)[O-] [Compound 142, 5-(2-Nitrophenyl)-N-(pyridin-3-ylmethyl)-2-(4-(trifluoromethyl)phenyl)oxazole-4-carboxamide] |
| 2% | 0% | CN1CCN(CCNC(=O)c2nc(-c3ccc(C4CC4)cc3)oc2-c2ccccc2)CC1 [Compound 280, 2-(4-Cyclopropylphenyl)-N-(2-(4-Methylpiperazin-1-yl)ethyl)-5-phenyloxazole-4-carboxamide] |
| 41% | 46% | CS(=O)(=O)N1CCN(CCNC(=O)c2nc(-c3ccc(C(F)(F)F)cc3)oc2-c2ccccc2[N+](=O)[O-])CC1 [Compound 287, N-(2-(4-(methylsulfonyl)piperazin-1-yl)ethyl)-5-(2-nitrophenyl)-2-(4-(trifluoromethyl)phenyl)oxazole-4-carboxamide] |
| -15% | -6% | CN(C)CCNC(=O)c1nc(-c2ccc(C(C)(C)C)cc2)oc1-c1ccccc1[N+](=O)[O-] [Compound 268, 2-(4-(tert-Butyl)phenyl)-N-(2-(dimethylamino)ethyl)-5-(2-nitrophenyl)oxazole-4-carboxamide] |
| 5% | 0% | CN1CCN(CCNC(=O)c2nc(-c3cccc(OC(F)(F)F)c3)oc2-c2ccccc2)CC1 [Compound 200, N-(2-(4-Methylpiperazin-1-yl)ethyl)-5-phenyl-2-(3-(trifluoromethoxy)phenyl)oxazole-4-carboxamide] |
| 32% | 39% | COc1ccc(-c2nc(C(=O)N3CCN(CCN(C)C)CC3)c(-c3ccc([N+](=O)[O-])cc3)o2)cc1 [Compound 218, (4-(2-(Dimethylamino)ethyl)piperazin-1-yl)(2-(4-methoxyphenyl)-5-(4-nitrophenyl)oxazol-4-yl)methanone] |
| -34% | -9% | COc1ccc(-c2nc(C(=O)NCCN3CCN(C)CC3)c(-c3ccccc3)o2)cc1 [Compound 213, 2-(4-Methoxyphenyl)-N-(2-(4-methylpiperazin-1-yl)ethyl)-5-phenyloxazole-4-carboxamide] |
| 4% | 13% | O=C(NCCN1CCCC1)c1nc(-c2ccc(C(F)(F)F)cc2)oc1-c1ccccc1[N+](=O)[O-] [Compound 139, 5-(2-Nitrophenyl)-N-(2-(pyrrolidin-1-yl)ethyl)-2-(4-(trifluoromethyl)phenyl)oxazole-4-carboxamide] |
| 1% | 4% | CC(=O)c1ccc(NC(=O)c2nc(-c3ccc(C(F)(F)F)cc3)oc2-c2ccccc2[N+](=O)[O-])cc1 [Compound 147, N-(4-Acetylphenyl)-5-(2-nitrophenyl)-2-(4-(trifluoromethyl)phenyl)oxazole-4-carboxamide] |
| 31% | 49% | O=C(NCCN1CCNCC1)c1nc(-c2cc(F)cc(F)c2)oc1-c1ccccc1[N+](=O)[O-] [Compound 283, 2-(3,5-Difluorophenyl)-5-(2-nitrophenyl)-N-(2-(piperazin-1-yl)ethyl)oxazole-4-carboxamide] |
| -20% | 11% | CN1CCN(CCNC(=O)c2nc(-c3ccc(-c4ccccc4)cc3)oc2-c2ccccc2)CC1 [Compound 254, 2-([1,1′-Biphenyl]-4-yl)-N-(2-(4-methylpiperazin-1-yl)ethyl)-5-phenyloxazole-4-carboxamide] |
| 23% | 68% | CCOC(=O)c1nc(-c2ccc(Cl)cc2)oc1-c1ccccc1[N+](=O)[O-] [Compound 78, Ethyl 2-(4-chlorophenyl)-5-(2-nitrophenyl)oxazole-4-carboxylate] |
| -29% | 10% | CN1CCN(CCNC(=O)c2nc(-c3ccc(C(C)(C)C)cc3)oc2-c2ccccc2)CC1 [Compound 266, 2-(4-(tert-butyl)phenyl)-N-(2-(4-methylpiperazin-1-yl)ethyl)-5-phenyloxazole-4-carboxamide] |
| -22% | -17% | CN1CCN(CCNC(=O)c2coc(-c3ccc(C(F)(F)F)cc3)n2)CC1 [Compound 115, N-(2-(4-methylpiperazin-1-yl)ethyl)-2-(4-(trifluoromethyl)phenyl)oxazole-4-carboxamide] |
